# Numbers after ± are expanded uncertainties.
# Experiment: mn = molality of the nth substance listed, in mol/kg
# Details: 298.15 K, 101.3 kPa, Liquid, Frequency=0.0002 MHz, Alternating current cell with electrodes
structure (smiles),measurement,setting,value
C[C@H](CCC(=O)[O-])[C@H]1CC[C@H]2[C@@H]3[C@H](O)C[C@@H]4C[C@H](O)CC[C@]4(C)[C@H]3C[C@H](O)[C@]12C.[Na+] [sodium cholate] + O,electrical conductivity,m1 = 0.00042,0.0033 ± 0.0003 S/m
same,electrical conductivity,m1 = 0.00083,0.0062 ± 0.0003 S/m
same,electrical conductivity,m1 = 0.00124,0.009 ± 0.0006 S/m
same,electrical conductivity,m1 = 0.00164,0.0118 ± 0.0006 S/m
same,electrical conductivity,m1 = 0.00205,0.0144 ± 0.0006 S/m
same,electrical conductivity,m1 = 0.00245,0.0171 ± 0.0006 S/m
same,electrical conductivity,m1 = 0.00284,0.0197 ± 0.0007 S/m
same,electrical conductivity,m1 = 0.00324,0.0225 ± 0.0007 S/m
same,electrical conductivity,m1 = 0.00363,0.025 ± 0.0006 S/m
same,electrical conductivity,m1 = 0.00401,0.0275 ± 0.0006 S/m
same,electrical conductivity,m1 = 0.0044,0.0299 ± 0.0006 S/m
same,electrical conductivity,m1 = 0.00478,0.0322 ± 0.0006 S/m
same,electrical conductivity,m1 = 0.00516,0.0345 ± 0.0006 S/m
same,electrical conductivity,m1 = 0.00553,0.0366 ± 0.0007 S/m
same,electrical conductivity,m1 = 0.0059,0.0388 ± 0.0007 S/m
same,electrical conductivity,m1 = 0.00627,0.0409 ± 0.0007 S/m
same,electrical conductivity,m1 = 0.00664,0.043 ± 0.0007 S/m
same,electrical conductivity,m1 = 0.007,0.0451 ± 0.0007 S/m
same,electrical conductivity,m1 = 0.00736,0.0473 ± 0.0007 S/m
same,electrical conductivity,m1 = 0.00772,0.0493 ± 0.0007 S/m
same,electrical conductivity,m1 = 0.00807,0.0512 ± 0.0007 S/m
same,electrical conductivity,m1 = 0.00842,0.0532 ± 0.0008 S/m
same,electrical conductivity,m1 = 0.00877,0.0553 ± 0.0008 S/m
same,electrical conductivity,m1 = 0.00912,0.0573 ± 0.0008 S/m
same,electrical conductivity,m1 = 0.00946,0.0591 ± 0.0008 S/m
same,electrical conductivity,m1 = 0.00981,0.061 ± 0.0008 S/m
same,electrical conductivity,m1 = 0.01015,0.063 ± 0.0016 S/m
same,electrical conductivity,m1 = 0.01048,0.0649 ± 0.0015 S/m
same,electrical conductivity,m1 = 0.01082,0.0668 ± 0.0015 S/m
same,electrical conductivity,m1 = 0.01115,0.0687 ± 0.0016 S/m
same,electrical conductivity,m1 = 0.01148,0.0706 ± 0.0016 S/m
same,electrical conductivity,m1 = 0.0118,0.0724 ± 0.0016 S/m
same,electrical conductivity,m1 = 0.01213,0.0743 ± 0.0016 S/m
same,electrical conductivity,m1 = 0.01245,0.0762 ± 0.0016 S/m
same,electrical conductivity,m1 = 0.01277,0.078 ± 0.0016 S/m
same,electrical conductivity,m1 = 0.01309,0.0798 ± 0.0016 S/m
same,electrical conductivity,m1 = 0.0134,0.0816 ± 0.0016 S/m
same,electrical conductivity,m1 = 0.01371,0.0834 ± 0.0017 S/m
same,electrical conductivity,m1 = 0.01402,0.0853 ± 0.0017 S/m
same,electrical conductivity,m1 = 0.01433,0.0871 ± 0.0017 S/m
same,electrical conductivity,m1 = 0.01464,0.0889 ± 0.0017 S/m
same,electrical conductivity,m1 = 0.01494,0.0906 ± 0.0017 S/m
same,electrical conductivity,m1 = 0.01524,0.0924 ± 0.0017 S/m
same,electrical conductivity,m1 = 0.01554,0.0942 ± 0.0017 S/m
same,electrical conductivity,m1 = 0.01584,0.0959 ± 0.0017 S/m
same,electrical conductivity,m1 = 0.01614,0.0976 ± 0.0017 S/m
same,electrical conductivity,m1 = 0.01643,0.0993 ± 0.0018 S/m
same,electrical conductivity,m1 = 0.01672,0.101 ± 0.0018 S/m
same,electrical conductivity,m1 = 0.01701,0.103 ± 0.0018 S/m
same,electrical conductivity,m1 = 0.0173,0.104 ± 0.0018 S/m
CCCCCCCCCCCCOS(=O)(=O)[O-].[Na+] [sodium dodecyl sulfate] + O,electrical conductivity,m1 = 0.001,0.0071 ± 0.0001 S/m
same,electrical conductivity,m1 = 0.00201,0.0137 ± 0.0003 S/m
same,electrical conductivity,m1 = 0.00301,0.0209 ± 0.0004 S/m
same,electrical conductivity,m1 = 0.00401,0.0275 ± 0.0004 S/m
same,electrical conductivity,m1 = 0.00501,0.034 ± 0.0004 S/m
same,electrical conductivity,m1 = 0.00602,0.041 ± 0.0004 S/m

# — the NIST ThermoML archive (doi:10.1016/j.jct.2016.04.019)
